Patent US9725449B2, “Tricyclic compounds as anticancer agents” (BRISTOL-MYERS SQUIBB COMPANY, priority 2015, dated 2017)
Read-outs that look alike come from different tables or passages of the source.

Target: BRD4 (Homo sapiens, UniProt O60885)
Experiment: Time resolved fluorescence resonance energy transfer (TR-FRET) binding assay, bromodomain BRD4
Conditions: one of the FRET assays described

Structure (SMILES): COc1nnn(C)c1-c1cnc2c3ccc(Cl)nc3n([C@H](c3ccccc3)C3CCOCC3)c2c1 [Example 167, 11-Chloro-5-(4-methoxy-1-methyl-1H-1,2,3-triazol-5-yl)-8-[(S)-oxan-4-yl(phenyl)methyl]-3,8,10-triazatricyclo[7.4.0.0^2,^7]trideca-1(9),2(7),3,5,10,12-hexaene]
- IC50 (read-out: FRET BRD4 IC50): < 1500 nM

Structure (SMILES): [2H]C([2H])([2H])c1nnn(C)c1-c1cnc2c3ccc(N4CCN(C([2H])([2H])[2H])CC4)nc3n([C@H](c3ccccc3)C3CCOCC3)c2c1 [Example 249, 5-[4-(^2H3)Methyl-1-methyl-1H-1,2,3-triazol-5-yl]-11-[4-(^2H3)methylpiperazin-1-yl]-8-[(S)-oxan-4-yl(phenyl)methyl]-3,8,10-triazatricyclo[7.4.0.0^2,^7]trideca-1(13),2(7),3,5,9,11-hexaene]
- IC50 (read-out: FRET BRD4 IC50): < 10 nM

Structure (SMILES): [2H]C([2H])([2H])c1nnn(C)c1-c1cnc2c3c(OCC)ncc(S(C)(=O)=O)c3n(C(c3ncccc3F)C3CCOCC3)c2c1 (centres unmarked) [Example 69, 13-Ethoxy-8-[(3-fluoropyridin-2-yl)(oxan-4-yl)methyl]-10-methanesulfonyl-5-[4-(^2H3)methyl-1-methyl-1H-1,2,3-triazol-5-yl]-3,8,12-triazatricyclo[7.4.0.0^2,^7]trideca-1(13),2(7),3,5,9,11-hexaene]
- IC50 (read-out: FRET BRD4 IC50): < 1500 nM

Structure (SMILES): [2H]C([2H])([2H])c1nnn(C)c1-c1cnc2c3ccc(C(C)=O)nc3n([C@H](c3ccccc3)C3CCOCC3)c2c1 [Example 202, 1-{5-[4-(^2H3)Methyl-1-methyl-1H-1,2,3-triazol-5-yl]-8-[(S)-oxan-4-yl(phenyl)methyl]-3,8,10-triazatricyclo[7.4.0.0^2,^7]trideca-1(9),2(7),3,5,10,12-hexaen-11-yl}ethan-1-one]
- IC50 (read-out: FRET BRD4 IC50): < 10 nM

Structure (SMILES): [2H]C([2H])([2H])c1nnn(C)c1-c1cnc2c3ccc(N4C5CCC4CC(O)C5)nc3n([C@H](c3ccccc3)C3CCOCC3)c2c1 (stereo partly drawn) [Example 183, 8-{5-[4-(^2H3)Methyl-1-methyl-1H-1,2,3-triazol-5-yl]-8-[(S)-oxan-4-yl(phenyl)methyl]-3,8,10-triazatricyclo[7.4.0.0^2,^7]trideca-1(9),2(7),3,5,10,12-hexaen-11-yl}-8-azabicyclo[3.2.1]octan-3-ol]
- IC50 (FRET BRD4 IC50 (nM)): < 10 nM

Structure (SMILES): [2H]C([2H])([2H])c1nnn(C)c1-c1cnc2c3c(OC)nc(C(C)=O)cc3n([C@H](c3ncccc3F)C3CCOCC3)c2c1 [Example 308, 1-{8-[(S)-(3-Fluoropyridin-2-yl)(oxan-4-yl)methyl]-13-methoxy-5-[4-(^2H3)methyl-1-methyl-1H-1,2,3-triazol-5-yl]-3,8,12-triazatricyclo[7.4.0.0^2,^7]trideca-1(9),2(7),3,5,10,12-hexaen-11-yl}ethan-1-one]
- IC50 (read-out: FRET BRD4 IC50): < 10 nM

Structure (SMILES): [2H]C([2H])([2H])c1nnn(C)c1-c1cnc2c3ccc(N4CCN(C(C)(C)C)CC4)nc3n([C@H](c3ccccc3)C3CCOCC3)c2c1 [Example 152, 11-(4-tert-Butylpiperazin-1-yl)-5-[4-(^2H3)methyl-1-methyl-1H-1,2,3-triazol-5-yl]-8-[(S)-oxan-4-yl(phenyl)methyl]-3,8,10-triazatricyclo[7.4.0.0^2,^7]trideca-1(9),2(7),3,5,10,12-hexaene]
- IC50 (read-out: FRET BRD4 IC50): < 10 nM

Structure (SMILES): Cc1nnn(C)c1-c1cnc2c3ccc(NCCP(=O)(O)O)nc3n([C@H](c3ccccc3)C3CCOCC3)c2c1 [Example 219, (2-{[5-(Dimethyl-1H-1,2,3-triazol-5-yl)-8-[(S)-oxan-4-yl(phenyl)methyl]-3,8,10-triazatricyclo[7.4.0.0^2,^7]trideca-1(9),2(7),3,5,10,12-hexaen-11-yl]amino}ethyl)phosphonic acid]
- IC50 (read-out: FRET BRD4 IC50): < 1 nM

Structure (SMILES): [2H]C([2H])([2H])c1nnn(C)c1-c1cnc2c3cnc(C(C)(C)O)cc3n(C(CCC)c3ncccc3F)c2c1 (centres unmarked) [Example 360, 2-{8-[1-(3-Fluoropyridin-2-yl)butyl]-5-[4-(^2H3)methyl-1-methyl-1H-1,2,3-triazol-5-yl]-3,8,12-triazatricyclo[7.4.0.0^2,^7]trideca-1(13),2(7),3,5,9,11-hexaen-11-yl}propan-2-ol]
- IC50 (read-out: FRET BRD4 IC50): < 10 nM

Structure (SMILES): COc1ncc(C(=O)N2CC(F)C2)c2c1c1ncc(-c3c(C)nnn3C)cc1n2[C@H](c1ccccc1)C1CCOCC1 [Example 137, 5-(dimethyl-1H-1,2,3-triazol-5-yl)-10-(3-fluoroazetidine-1-carbonyl)-13-methoxy-8-[(S)-oxan-4-yl(phenyl)methyl]-3,8,12-triazatricyclo[7.4.0.0^2,^7]trideca-1(9),2,4,6,10,12-hexaene]
- IC50 (read-out: FRET BRD4 IC50): < 10 nM

Structure (SMILES): [2H]C([2H])([2H])c1nnn(C)c1-c1cnc2c3c(OCCCF)ncc(S(C)(=O)=O)c3n([C@H](c3ccccc3F)C3CCOCC3)c2c1 [Example 85, 8-[(S)-(2-Fluorophenyl)(oxan-4-yl)methyl]-13-(3-fluoropropoxy)-10-methanesulfonyl-5-[4-(^2H3)methyl-1-methyl-1H-1,2,3-triazol-5-yl]-3,8,12-triazatricyclo[7.4.0.0^2,^7]trideca-1(13),2(7),3,5,9,11-hexaene]
- IC50 (read-out: FRET BRD4 IC50): < 1 nM

Structure (SMILES): COc1nccc2c3ncc(-c4c(C)nnn4C)cc3n(C(c3cccc(F)c3F)C3CCOCC3)c12 (single isomer, unassigned) [Example 22, 8-[(2,3-Difluorophenyl)(oxan-4-yl)methyl]-5-(dimethyl-1H-1,2,3-triazol-5-yl)-10-methoxy-3,8,11-triazatricyclo[7.4.0.0^2,^7]trideca-1(13),2(7),3,5,9,11-hexaene]
- IC50 (read-out: FRET BRD4 IC50): < 10 nM

Structure (SMILES): COc1nnn(C)c1-c1cnc2c3ccc(-c4c(OC)nnn4C)nc3n([C@H](c3ccccc3F)C3CCOCC3)c2c1 [Example 253, 8-[(S)-(2-Fluorophenyl)(oxan-4-yl)methyl]-5,11-bis(4-methoxy-1-methyl-1H-1,2,3-triazol-5-yl)-3,8,10-triazatricyclo[7.4.0.0^2,^7]trideca-1(13),2(7),3,5,9,11-hexaene]
- IC50 (read-out: FRET BRD4 IC50): < 10 nM

Structure (SMILES): [2H]C([2H])([2H])c1nnn(C)c1-c1cnc2c3c(OC)ncc(S(C)(=O)=O)c3n([C@H](c3ccccc3F)C3CCOCC3)c2c1 [Example 51, 8-[(S)-(2-Fluorophenyl)(oxan-4-yl)methyl]-10-methanesulfonyl-13-methoxy-5-[4-(^2H3)methyl-1-methyl-1H-1,2,3-triazol-5-yl]-3,8,12-triazatricyclo[7.4.0.0^2,^7]trideca-1(13),2(7),3,5,9,11-hexaene]
- IC50 (read-out: FRET BRD4 IC50): < 1 nM

Structure (SMILES): Cc1nnn(C)c1-c1cnc2c3ccc(S(=O)(=O)N4CCN(C)CC4)nc3n([C@H](c3ccccc3)C3CCOCC3)c2c1 [Example 198, 5-(Dimethyl-1H-1,2,3-triazol-5-yl)-11-[(4-methylpiperazin-1-yl)sulfonyl]-8-[(S)-oxan-4-yl(phenyl)methyl]-3,8,10-triazatricyclo[7.4.0.0^2,^7]trideca-1(9),2(7),3,5,10,12-hexaene]
- IC50 (read-out: FRET BRD4 IC50): < 10 nM

Structure (SMILES): [2H]C([2H])([2H])c1nnn(C)c1-c1cnc2c3c(OC)ncc(S(C)(=O)=O)c3n([C@H](c3ccc(F)cc3)C3CCC(F)(F)CC3)c2c1 [Example 95, 8-[(S)-(4,4-Difluorocyclohexyl)(4-fluorophenyl)methyl]-10-methanesulfonyl-13-methoxy-5-[4-(^2H3)methyl-1-methyl-1H-1,2,3-triazol-5-yl]-3,8,12-triazatricyclo[7.4.0.0^2,^7]trideca-1(13),2(7),3,5,9,11-hexaene]
- IC50 (read-out: FRET BRD4 IC50): < 10 nM

Structure (SMILES): [2H]C([2H])([2H])c1nnn(C)c1-c1cnc2c3ccc(-c4c(C([2H])([2H])[2H])nnn4C)nc3n(C(c3ccccc3)C3CCC(F)(F)CC3)c2c1 (centres unmarked) [Example 260, 8-[(4,4-Difluorocyclohexyl)(phenyl)methyl]-5,11-bis[4-(^2H3)methyl-1-methyl-H-1,2,3-triazol-5-yl]-3,8,10-triazatricyclo[7.4.0.0^2,^7]trideca-1(13),2(7),3,5,9,11-hexaene]
- IC50 (read-out: FRET BRD4 IC50): < 10 nM

Structure (SMILES): Cc1nnn(C)c1-c1cnc2c3ccnc(OCCN(C)C)c3n([C@H](c3ccccc3)C3CCOCC3)c2c1 [Example 10, (2-{[5-(Dimethyl-1H-1,2,3-triazol-5-yl)-8-[(S)-oxan-4-yl(phenyl)methyl]-3,8,11-triazatricyclo[7.4.0.0^2,^7]trideca-1(13),2(7),3,5,9,11-hexaen-10-yl]oxy}ethyl)dimethylamine]
- IC50 (read-out: FRET BRD4 IC50): < 10 nM

Structure (SMILES): Cc1noc(C)c1-c1cnc2c3c(NS(=O)(=O)C4CC4)ncc(S(C)(=O)=O)c3n([C@H](c3ccccc3)C3CCOCC3)c2c1 [Example 98, N-[5-(Dimethyl-1,2-oxazol-4-yl)-10-methanesulfonyl-8-[(S)-oxan-4-yl(phenyl)methyl]-3,8,12-triazatricyclo[7.4.0.0^2,^7]trideca-1(13),2(7),3,5,9,11-hexaen-13-yl]cyclopropanesulfonamide]
- IC50 (read-out: FRET BRD4 IC50): < 10 nM

Structure (SMILES): [2H]C([2H])([2H])c1nnn(C)c1-c1cnc2c3c(OC)ncc(C(C)(C)O)c3n(C(c3ccccc3)C3CCC(F)(F)CC3)c2c1 (single isomer, unassigned) [Example 282, 2-{8-[(4,4-Difluorocyclohexyl)(phenyl)methyl]-13-methoxy-5-[4-(^2H3)methyl-1-methyl-1H-1,2,3-triazol-5-yl]-3,8,12-triazatricyclo[7.4.0.0^2,^7]trideca-1(9),2,4,6,10,12-hexaen-10-yl}propan-2-ol]
- IC50 (read-out: FRET BRD4 IC50): < 1 nM

Structure (SMILES): [2H]C([2H])([2H])c1nnn(C)c1-c1cnc2c3ccc(C4=CCS(=O)(=O)CC4)nc3n([C@H](c3ccccc3)C3CCOCC3)c2c1 [Example 204, 4-{5-[4-(^2H3)Methyl-1-methyl-1H-1,2,3-triazol-5-yl]-8-[(S)-oxan-4-yl(phenyl)methyl]-3,8,10-triazatricyclo[7.4.0.0^2,^7]trideca-1(9),2(7),3,5,10,12-hexaen-11-yl}-3,6-dihydro-2H-1λ^6-thiopyran-1,1-dione]
- IC50 (read-out: FRET BRD4 IC50): < 10 nM

Structure (SMILES): Cc1nnn(C)c1-c1cnc2c3ccc(-c4cnn(C(C)C)c4)nc3n([C@H](c3ccccc3)C3CCOCC3)c2c1 [Example 149, 5-(Dimethyl-1H-1,2,3-triazol-5-yl)-8-[(S)-oxan-4-yl(phenyl)methyl]-11-[1-(propan-2-yl)-1H-pyrazol-4-yl]-3,8,10-triazatricyclo[7.4.0.0^2,^7]trideca-1(13),2(7),3,5,9,11-hexaene]
- IC50 (read-out: FRET BRD4 IC50): < 10 nM

Structure (SMILES): Cc1nnn(C)c1-c1cnc2c3cncc(Cl)c3n([C@H](c3ccccc3)C3CCOCC3)c2c1 [Example 34, 10-Chloro-5-(dimethyl-1H-1,2,3-triazol-5-yl)-8-[(S)-oxan-4-yl(phenyl)methyl]-3,8,12-triazatricyclo[7.4.0.0^2,^7]trideca-1(13),2(7),3,5,9,11-hexaene]
- IC50 (read-out: FRET BRD4 IC50): < 10 nM
